Reference: patent US20150025045A1, “CBP AND p300-MEDIATED TRANSCRIPTION MODULATORS AND RELATED METHODS” (THE OHIO STATE UNIVERSITY, priority 2011, published 2015)
“Also recorded” adds a separate entry of the source.

Experiments:
KIX domain of CBP = biological target: T1, KIX domain of CBP (Mus musculus, UniProt P45481); assay: 1H-15N-HSQC binding analysis; conditions: 200 μM 15N-His6KIX, 5 eq. compound
T1 construct: the KIX domain, an 87-residue module whose solution structure has been elucidated; made in house
Experimental: The amide chemical shifts that change upon addition of 4 were quantitated were quantified using the equation: Δδ=[Δδ(^1H)^2+0.1Δδ(^15N)^2]^1/2, FIG. 7B bottom.
Uniformly labeled His6KIX protein was expressed and purified as previously described and stored as a lyophilized powder (see, e.g., Buhrlage, 2009). A 200 μM solution of His6KIX was prepared by dissolving the lyophilized protein, in a 9:1 H2O:D2O 10 mM PBS buffer containing 150 mM NaCl at pH 7.2. ^1H-^15N HSQC experiments were recorded at 27° C. on an Avance Bruker 600 MHz NMR spectrometer equipped with a 5 mm cryogenic probe. An HSQC was collected in the absence of isoxazolidine 4 and compared with data recorded in the presence of 5 eq. (1 mM) of 4. Data was processed using NMRPIPE. Chemical shift assignments were based on previously reported data′ and chemical shift analyses with Sparky software were quantified (Δδ=[Δδ(^1H)^2+0.1Δδ(^15N)^2]^1/2).

Jun = assay: Transcriptional inhibition assay, Ga14 DBD-Jun TAD luciferase reporter in HeLa cells; assay type: cell-based; conditions: in words
Experimental: Cells were transfected with Firefly (500 ng/mL) and Renilla luciferase (10 ng/mL) plasmids in addition to plasmids encoding the DBD of Ga14 fused to the minimal activation domains of either MLL (250 ng/mL), Jun (100 ng/mL), or ESX (500 ng/mL, 0.1 mL of total transfection solution). Four hours post-transfection cells were treated with increasing concentration of 1b (0→50 μM) as a solution in DMSO such that the final DMSO concentration was 1% (v/v). Percent inhibition is the ratio of fold activation of Jun at each concentration of compound and the fold activation of Jun in a DMSO-treated control. Each bar represents at least three independent experiments with the indicated error (SDOM). For each concentration level of 1b shown in FIG. 5a, the first data column from the left is Jun, the middle column is MLL, and the third column is ESX. (b) MCF-7 cells were treated with 40 μM 1b (as a solution in DMSO such that the final concentration of DMSO was 1% v/v) for 24 h, at which time the cells were lysed and the lysates separated by SDS-PAGE. Western blots were performed using commercial antibodies against GAPDH, Jun, and cyclin D1.
(b) Analogs of 1b tested for MLL and Jun inhibition. (c) Inhibition of Jun with isoxazolidine analogs Inhibition assays were carried out as described in FIG. 5a (SEQ ID NOs:1-4). For each concentration level shown in FIG. 6c, the compound data is shown (from the left) in the following order: 3, 4, 5, 6, 7, 8 and 9.
HeLa cells (10,000 per well) were transfected with a Firefly luciferase reporter (500 ng/mL), and Renilla (10 ng/mL) control plasmid in addition to a plasmid encoding for either the MLL (250 ng/mL) or Jun (100 ng/mL) activation domain fused to the DNA-binding domain of Ga14 in 0.1 mL Optimem. The Optimem was removed and 0.1 mL of DMEM supplemented with 10% FBS and compound was added four hours post-transfection and the luminescence was assessed after 24 h as described above.

MCF-7 cells = assay: Cell viability assay (WST-1); assay type: cell-based; conditions: at concentrations ≧50 μM (so in the source)
Experimental: Viability data was acquired after 24 h using a cell-permeable metabolic dye, WST-1 (Roche). Viability data was normalized based on cell viability in the presence of 1% DMSO.
MCF-7 cells (American Tissue Culture Collection) were seeded at 5000 cells per well in a 96 well plate in RPMI media supplemented with 10% fetal bovine serum and allowed to adhere (37° C. and 5% CO2) overnight. Cells were incubated with 1b in DMSO or DMSO alone to a final DMSO concentration of 1% (v/v) for 24 hrs. WST-1 (Roche) was subsequently added to wells and the 96 well plate was incubated for 1 h at 37° C. Absorbance at 440 nm was read on a Tecan GENios Pro plate reader following 1 minute of orbital shaking. Data was corrected for wells containing media+WST-1 without cells. Each value is the average of at least three wells with the indicated error (SDOM).

T1 sequence (P45481 586-665 limits assumed): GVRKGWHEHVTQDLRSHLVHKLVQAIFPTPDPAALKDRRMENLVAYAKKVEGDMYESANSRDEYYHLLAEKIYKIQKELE

Row | Structure (SMILES) | KIX binding by 1H-15N-HSQC (KIX domain of CBP) | effect on Jun-driven transcription (Jun) | toxicity (MCF-7 cells)
1 | CC(C)C[C@]1(CCO)C[C@H](CN=[N+]=[N-])ON1Cc1ccc(O)cc1 (racemic) [isoxazolidine 4] | did not negatively impact KLX binding | little activity | no measurable toxicity
2 | CC(C)C[C@]1(CCO)C[C@H](CN=[N+]=[N-])ON1Cc1ccc(F)cc1 (racemic) [isoxazolidine 6] | – | dose-dependent manner; also recorded: enhanced potency | –
3 | CC(C)CCN1O[C@@H](CN=[N+]=[N-])C[C@@]1(CCO)CC(C)C (racemic) [isoxazolidine 7] | – | dose-dependent manner; also recorded: enhanced potency | –
4 | CC(C)CN1O[C@@H](CN=[N+]=[N-])C[C@@]1(CCO)CC(C)C (racemic) [isoxazolidine 8] | – | little activity | –
5 | CCCN1O[C@@H](CN=[N+]=[N-])C[C@@]1(CCO)CC(C)C (racemic) [isoxazolidine 9] | – | little activity | –
